Where two headings read alike, the source gives them in different places.

The target in this experiment is E3 ubiquitin ligase CRBN (Homo sapiens, UniProt Q96SW2). As to the kind of experiment: CRBN competitive binding assay (HTRF, thalidomide-XL665 displacement). The procedure:
CRBN binding activity test kit (CEREBLON BINDING KITS (PE, 64BD CRBN PEG)).
The detection is based on homogeneous time-resolved fluorescence (HTRF) technology.
This kit uses a europium-labeled GST antibody (GST Eu Cryptate Antibody) as the donor and XL665-labeled thalidomide (Thalidomide-Red reagent) as the receptor. The donor binds to the GST-tagged CRBN protein.
The donor and acceptor were each diluted 50-fold using the buffer (PROTAC binding buffer 1) in the kit. The CRBN protein was diluted 45-fold. The 8 mM compound solution disclosed in the present invention was diluted 10-fold using the diluent (1 X diluent) in the kit, and then the dilutd solution was subjected to 5-fold gradient dilution of the diluent, diluted 7 times sequentially. […] The mixture was incubated at room temperature for 3 hours. The ratio of the acceptor and donor emission signals for each individual well was calculated.
IC50 value was calculated based on compound concentration, Ratio, and coefficient of variation using GraphPad Prism.

Where [1] appears, read: competition with XL665-labeled thalidomide for GST-tagged CRBN protein, 3 hours at room temperature, read-out: IC50.

Turning to `O=c1ccn(-c2ccc3c(c2)OC2(CCNCC2)CC3)c(=O)[nH]1` [Example A1, 1-(spiro[chroman-2,4'-piperidin]-7-yl)pyrimidine-2,4(1H,3H)-dione], under setting [1], the IC50 is 25.7 µM.

On to `O=C1CCN(c2ccc3c(c2)OC2(CCNCC2)CC3)C(=O)N1` [Example A2, 1-(spiro[chroman-2,4'-piperidin]-7-yl)dihydropyrimidine-2,4(1H,3H)-dione], for which, under setting [1], the half-inhibitory concentration (IC50) stood at 1.53 µM.

With `O=C1CCC2(CC1)CCc1ccc(N3CCC(=O)NC3=O)cc1O2` [Example A3, 1-(4'-oxospiro[chroman-2,1'-cyclohexan]-7-yl)dihydropyrimidine-2,4(1H,3H)-dione], the IC50 under setting [1] turned out to be 0.59 µM.

In turn, `O=C1CCC(c2ccc3c(c2)OC2(CCNCC2)CC3)C(=O)N1` (centres unmarked) [Example A4] showed an IC50 (competition with XL665-labeled thalidomide for GST-tagged CRBN protein, 3 hours at room temperature) of 0.55 µM.

For the compound `O=C1CCN(c2ccc3c(c2)OC2(CC3)CNC2)C(=O)N1` [Example A5, 1-(spiro[azetidine-3,2'-chroman]-7'-yl)dihydropyrimidine-2,4(1H,3H)-dione], the IC50 under setting [1] turned out to be 3.06 µM.

Regarding `O=C1CCN(c2ccc3c(c2)CCC2(CCNCC2)O3)C(=O)N1` [Example A6, 1-(spiro[chromate-2,4'-piperidin]-6-yl)dihydropyrimidine-2,4(1H,3H)-dione], under setting [1], the IC50 was 7.47 µM.

`O=C1CCN(c2ccc3c(c2)OCC2(CCNCC2)C3)C(=O)N1` [Example A7, 1-(spiro[benzopyran-3,4'-piperidin]-7-yl)dihydropyrimidine-2,4(1H,3H)-dione]: under setting [1], the IC50 was 12.7 µM.

With `O=C1CCN(c2ccc3c(c2)CC2(CCNCC2)CO3)C(=O)N1` [Example A8, 1-(spiro[benzopyran-3,4'-piperidin]-6-yl)dihydropyrimidine-2,4(1H,3H)-dione], the IC50 under setting [1] is 9.5 µM.

As for `O=C1CCN(c2ccc3c(c2)OCC32CCNCC2)C(=O)N1` [Example A9, 1-(2H-spiro[benzofuran-3,4'-piperidin]-6-yl)dihydropyrimidine-2,4(1H,3H)-dione], the IC50 under setting [1] amounted to 11.5 µM.

Take `CN1CC2(CCNCC2)Oc2cc(N3CCC(=O)NC3=O)ccc21` [Example A10, 1-(4-methyl-3,4-dihydrospiro[benzo[b][1,4]oxazine-2,4'-piperidin]-7-yl)dihydropyrimidine-2,4(1H,3H)-dione]: the IC50 under setting [1] was found to be 0.91 µM.

On to `O=C1CCN(c2ccc3c(c2)OC2(CCNCC2)C3)C(=O)N1` [Example A11, 1-(3H-spiro[benzofuran-2,4'-piperidin]-6-yl)dihydropyrimidine-2,4(1H,3H)-dione], for which the half-inhibitory concentration (IC50) under setting [1] worked out at 6.15 µM.

Turning to `O=C1CCN(c2ccc3c(c2)CC2(CCNCC2)O3)C(=O)N1` [Example A12, 1-(3H-spiro[benzofuran-2,4'-piperidin]-5-yl)dihydropyrimidine-2,4(1H,3H)-dione], under setting [1], the IC50 was 13.3 µM.

As for `O=C1CCN(c2cccc3c2OCC32CCNCC2)C(=O)N1` [Example A13, 1-(2H-spiro[benzofuran-3,4'-piperidin]-7-yl)dihydropyrimidine-2,4(1H,3H)-dione], the half-maximal inhibitory concentration (IC50) under setting [1] came to 28.8 µM.

Turning to `O=C1CCN(c2ccc3c(c2)CCC2(CNC2)O3)C(=O)N1` [Example A14, 1-(spiro(azetidine-3,2'-benzodihydropyran)-6'-yl)dihydropyrimidine-2,4(1H,3H)-dione], under setting [1], the IC50 came to 8.36 µM.

For `O=C1CCN(c2ccc3c(c2)OCC2(CNC2)C3)C(=O)N1` [Example A15], under setting [1], the IC50 stood at 9.08 µM.

For `O=C1CCN(c2ccc3c(c2)CC2(CNC2)CO3)C(=O)N1` [Example A16, 1-(spiro[azetidine-3,3'-chroman]-6'-yl)dihydropyrimidine-2,4(1H,3H)-dione], the IC50 under setting [1] was 12.6 µM.

As to `O=C1CCN(c2ccc3c(c2)OCC32CCNCC2(F)F)C(=O)N1` (centres unmarked) [Example A17, 1-(3',3'-difluoro-2H-spiro[benzofuran-3,4'-piperidin]-6-yl)dihydropyrimidine-2,4(1H,3H)-dione], the IC50 under setting [1] is 1.73 µM.

Turning to `O=C1CCN(c2ccc3c(c2)OCCC2CNCCN32)C(=O)N1` (centres unmarked) [Example B1, 1-(2,3,4,4a,5,6-hexahydro-1H-benzo[b]pyrazino[1,2-d][1,4]oxazepin-9-yl)dihydropyrimidine-2,4(1H,3H)-dione], the IC50 under setting [1] was found to be 5.84 µM.

In the case of `O=C1CCN(c2ccc3c(c2)OCC[C@H]2CNCCN32)C(=O)N1` [Example B2, (S)-1-(2,3,4,4a,5,6-hexahydro-1H-benzo[b]pyrazino[1,2-d][1,4]oxazepin-9-yl)dihydropyrimidine-2,4(1H,3H)-dione], the IC50 under setting [1] is 6.11 µM.

Consider `O=C1CCN(c2ccc3c(c2)OCC[C@@H]2CNCCN32)C(=O)N1` [Example B3, (R)-1-(2,3,4,4a,5,6-hexahydro-1H-benzo[b]pyrazino[1,2-d][1,4]oxazepin-9-yl)dihydropyrimidine-2,4(1H,3H)-dione], for which the IC50 under setting [1] worked out at 5.67 µM.

For `O=C1CCN(c2cnc3c(c2)OCC[C@H]2CNCCN32)C(=O)N1` [Example B4, (S)-1-(7,7a,8,9,10,11-hexahydro-6H-pyrazino[1,2-d]pyrido[3,2-b][1,4]oxazepin-3-yl)dihydropyrimidine-2,4(1H,3H)-dione], the IC50 under setting [1] came to 5.49 µM.

Consider `O=C1CCN(c2cnc3c(c2)OCC[C@@H]2CNCCN32)C(=O)N1` [Example B5, (R)-1-(7,7a,8,9,10,11-hexahydro-6H-pyrazino[1,2-d]pyrido[3,2-b][1,4]oxirane-3-yl)dihydropyrimidine-2,4(1H,3H)-dione], for which the IC50 under setting [1] turned out to be 10.2 µM.

For `O=C1CCN(c2ccc3c(c2)NC(=O)CC2CNCCN32)C(=O)N1` (centres unmarked) [Example B6, 1-(6-oxo-1,2,3,4,4a,5,6,7-octahydrobenzo[b]pyrazino[1,2-d][1,4]diazepin-9-yl)dihydropyrimidine-2,4(1H,3H)-dione], under setting [1], the IC50 amounted to 24.3 µM.

Consider `CN1CC[C@H]2CNCCN2c2ccc(N3CCC(=O)NC3=O)cc21` [Example B7, (S)-1-(7-methyl-1,2,3,4,4a,5,6,7-octahydrobenzo[b]pyrazino[1,2-d][1,4]diazepin-9-yl)dihydropyrimidine-2,4(1H,3H)-dione], for which the IC50 under setting [1] amounted to 3.81 µM.

For the compound `O=C1CCN(c2ccc3c(c2)COC[C@H]2CNCCN32)C(=O)N1` [Example B8, (R)-1-(1,2,3,4,4a,5-hexahydro-7H-benzo[e]pyrazino[2,1-c][1,4]oxazepin-9-yl)dihydropyrimidine-2,4(1H,3H)-dione], under setting [1], the IC50 was determined as 10 µM.

With `O=C1CCN(c2ccc3c(c2)COC[C@@H]2CNCCN32)C(=O)N1` [Example B9, (S)-1-(1,2,3,4,4a,5-hexahydro-7H-benzo[e]pyrazino[2,1-c][1,4]oxazepin-9-yl)dihydropyrimidine-2,4(1H,3H)-dione], the IC50 under setting [1] is 8.59 µM.

In the case of `O=C1CCN(c2ccc3c(c2)NC(=O)C2CNCCN32)C(=O)N1` (centres unmarked) [Example B10, 1-(5-oxo-2,3,4,4a,5,6-hexahydro-1H-pyrazino[1,2-a]quinoxalin-8-yl)dihydropyrimidine-2,4(1H,3H)-dione], the IC50 under setting [1] came out at 3.34 µM.

Consider `CN1CC2CNCCN2c2ccc(N3CCC(=O)NC3=O)cc21` (centres unmarked) [Example B11, 1-(6-methyl-2,3,4,4a,5,6-hexahydro-1H-pyrazino[1,2-a]quinoxalin-8-yl)dihydropyrimidine-2,4(1H,3H)-dione], for which the IC50 under setting [1] was 3.76 µM.

In the case of `COc1cc2c(cc1N1CCC(=O)NC1=O)OCC[C@H]1CN(C(C)=O)CCN21` [Example B12], under setting [1], the IC50 was found to be 2.26 µM.

Take `O=C1CCN(c2cc3c(cc2F)N2CCNC[C@@H]2CCO3)C(=O)N1` [Example B13]: the IC50 was 4.45 µM.

Take `COc1cc2c(cc1N1CCC(=O)NC1=O)OCC[C@H]1CNCCN21` [Example B14, (S)-1-(10-methoxy-2,3,4,4a,5,6-hexahydro-1H-benzo[b]pyrazino[1,2-d][1,4]oxazepin-9-yl)dihydropyrimidine-2,4(1H,3H)-dione]: the IC50 under setting [1] is 5.4 µM.

Turning to `O=C1CCN(c2cc3c(cc2Cl)N2CCNC[C@@H]2CCO3)C(=O)N1` [Example B15, (S)-1-(10-chloro-2,3,4,4a,5,6-hexahydro-1H-benzo[b]pyrazino[1,2-d][1,4]oxazepin-9-yl)dihydropyrimidine-2,4(1H,3H)-dione], under setting [1], the IC50 came out at 3.7 µM.

The record behind these values is patent EP4806892A1, “CEREBLON E3 UBIQUITIN LIGASE INHIBITOR” (GAN & LEE PHARMACEUTICALS CO., LTD., priority 2023, dated 2025).
